From US20260315434A1, “USE OF GUAIACOL SESQUITERPENE LACTONE DERIVATIVES” (NANJING UNIVERSITY OF CHINESE MEDICINE, priority 2023, published 2026)
Values after ≈ are worked out from the molar mass of the structure shown. Marks after values point to notes of the source that are not given here.

Columns and labels:
[1] = system: fibrosis-related factors (Acta2, Col1a1, Tgfb1) in liver tissue; assay: CCl4-induced acute liver injury, liver fibrosis-related factor mRNA; assay type: in vivo, C57BL/6 mice; set-up: unit not given here
Method: (§1) They were acclimated for 7 days before use in experiments.
(§2) Mice were randomly assigned to groups. One group was arbitrarily designated as the normal group, while the remaining groups served as model group, Compound 1 group, Hydrochloride 20 group, Fumarate 21 group, and Silibinin group, with 6 mice per group. Except for the normal group receiving 10 mL olive oil/kg via injection, all other mice received 0.5 mL CCl4+9.5 mL olive oil/kg body weight via intraperitoneal injection, maintaining a CCl4 to olive oil ratio of 1:19. Starting from day 1 of modeling, Compound 1, Hydrochloride 20, and Fumarate 21 were administered orally for 3 consecutive days.
(§3) The blood was allowed to stand at room temperature for 2 hours, then centrifuged at 3000 rpm for 20 minutes. Serum was aspirated, aliquoted, and stored at −70° C. for future use. After blood collection, euthanize mice by cervical dislocation. Perform laparotomy to remove the liver. Rinse twice with pre-chilled PBS. Excise the left hepatic lobe tissue. […] Store remaining tissue at −70° C. for future use.
Q-PCR Analysis: Tissue total RNA extraction, cDNA synthesis, and PCR amplification methods are identical to Example 4. Additional primer information is as follows:
(§4) Data Statistics: All data are expressed as means f standard error of the mean (S.E.M.). Differences were analyzed for significance using analysis of variance (ANOVA). For groups showing significant differences in ANOVA, one-way ANOVA followed by Dunnett's test was performed to compare intergroup differences.

[2] = Safety evaluation, mouse activity status (30 days oral); assay type: in vivo, C57BL/6 mice; conditions: 500, 1000 mg/kg oral
From the text: The Normal group received an equal volume of solvent (saline).

[3] = system: inflammatory factors (MCP-1, TNF-α) in renal tissue; assay: Diabetic nephropathy, renal inflammatory factor mRNA; assay type: in vivo, C57/BL6J mice; set-up: Mcp-1 mRNA expression, kidney / Tnf-α mRNA expression, kidney / IL-6 mRNA expression, kidney: unit not given here; conditions: 8 weeks
Method: (§5) Experimental animals: C57/BL6J mice, male, 12 weeks old, purchased from GemPharmatech LLC. Production license number: SCXK(Su)2023-0009. […] Animals were acclimated for 7 days before use in experiments.
(§6) Administer streptozotocin (STZ, 50 mg/kg) via intraperitoneal injection for 5 consecutive days. After 72 hours, select mice with fasting blood glucose levels exceeding 16.7 mmol/L as model mice. […] Model mice were fed a high-fat diet (HFD) providing 60% of energy from fat for 8 weeks. After 8 weeks, gavage administration commenced.
(§7) Specimen Collection: One hour after the last drug administration, enucleate the eyeball to collect blood. Allow blood to stand at room temperature for 2 hours, then centrifuge at 3000 rpm for 20 minutes. Aspirate the serum, aliquot it, and store at −70° C. for future use. After blood collection, euthanize the mice by cervical dislocation. Open the abdominal cavity, remove the kidneys, and dissect away the perirenal fat and capsule. Store the tissue at −70° C. for future use.

[4] = system: inflammatory factors (TNF, IL-6, IL-1) in liver tissue; assay: LPS-induced sepsis, hepatic inflammatory factor mRNA (Q-PCR); conditions: for Tnf mRNA expression, liver: LPS 8.92; for Il6 mRNA expression, liver: LPS 11.34; for Il1 mRNA expression, liver: LPS 11.52
From the text: They were acclimated for 7 days before experimentation.
The normal and model groups received equal volumes of solvent (0.5% CMC-Na) via oral gavage.
Specimen Collection: One hour after the final drug administration, mice were euthanized by cervical dislocation. The abdominal cavity was opened, and the lungs, liver, and kidneys were removed. These organs were rinsed twice with pre-chilled PBS. Tissue samples were excised from the mouse lungs, left hepatic lobe, and kidneys. […] Remaining tissues were stored at −70° C. for future use.
Accurately weigh 20 mg of kidney, lung, and liver tissue. Rinse with pre-chilled PBS solution, cut into small pieces using ophthalmic scissors, and place into a glass homogenizer. Add 1 mL of Trizol reagent and grind to prepare tissue homogenate. Transfer the homogenate to a RNAse-free 1.5 mL EP tube and lyse on ice for 10 min. Add 200 μL chloroform, vortex vigorously, and let stand on ice for 3-5 min. Centrifuge at 12,000 rpm and 4° C. for 15 min. Carefully transfer the supernatant to a new RNAse-free 1.5 mL EP tube. Add an equal volume of pre-chilled isopropanol, incubate on ice for 30 min, then centrifuge at 12,000 rpm and 4° C. for 10 min. Discard the supernatant. […] Subsequently, dissolve the pellet in 10 μL DEPC-treated water. Dilute 1 μL of the total RNA solution 100-fold and measure the OD values at 260 nm and 280 nm using a full-wavelength microplate reader.
Following the method described in the kit manual, subsequent experiments were conducted using a 20 μL reverse transcription reaction system:
Primers were designed based on the nucleotide sequence of the mouse in GenBank and synthesized.
Perform subsequent experiments using a 20 μL reaction system according to the kit instructions:
After adding the above reagents to micro reaction tubes, seal them with the cap and place them in the Q-PCR instrument. Set the parameters according to the following reaction conditions to perform the amplification experiment.
Record the threshold cycle (Ct) values for each group and perform calculation and analysis using the 2^−ΔΔCt method (setting the expression level of the reference gene Gapdh as 1 to correct the expression levels of the target genes).
Data Statistics: All data are presented as Means±S.E.M. Analysis of variance (ANOVA) was performed to assess the significance of differences. Groups showing significant differences in ANOVA were further compared using one-way ANOVA and Dunnett's test. A P-value <0.05 was considered statistically significant.

[5] = system: serum ALT and AST; assay: CCl4-induced acute liver injury, serum ALT and AST; assay type: in vivo, C57BL/6 mice
Method: as §1, §2, §3
Serum AST and ALT Assay: Use 10 μL of each sample for testing. Determine mouse serum AST and ALT levels according to the operating manual. Measure absorbance at 510 nm using an enzyme-linked immunosorbent assay (ELISA) reader. Calculate sample concentration (U/L) based on the standard curve.
as §4

[6] = system: inflammatory cytokines (IL-1β, IL-6) in lung tissue; assay: LPS-induced acute lung injury, inflammatory cytokines by ELISA; assay type: in vivo, C57BL/6 mice; conditions: for IL-1β: LPS 2411.32; for IL-6: LPS 3520.94
Method: After a 7-day acclimatization period, mice were used for subsequent experiments.
The abdomen was opened, and the lungs were removed. They were rinsed twice with pre-chilled PBS. […] The remaining tissue was stored at −70° C. for future use.
Data Statistics: All data are expressed as means S.E.M. Statistical differences between groups were analyzed using one-way ANOVA and t-tests in SPSS software. P values less than 0.05 were considered statistically significant.

[7] = Water solubility testing of compounds (HPLC); conditions: deionized water, water, Water-solubility, 37 °C
[8] = system: serum creatinine and blood urea nitrogen; assay: Diabetic nephropathy (STZ/HFD), serum creatinine and BUN; assay type: in vivo, C57/BL6J mice; conditions: 8 weeks
Method: as §5, §6, §7
Serum Creatinine (Scr) and Blood Urea Nitrogen (BUN) Assay: For each sample, 10 μL of serum was used for creatinine and urea level detection. Samples were added sequentially strictly following the kit instructions. After incubation at 37° C., absorbance values were measured using an enzyme-linked immunosorbent assay (ELISA) reader. The concentration levels of each indicator were calculated based on the standard curve.

Row | Compound | Acta2 mRNA expression, liver ([1]; 1 mg/kg oral) | Col1a1 mRNA expression, liver ([1]; 1 mg/kg oral) | Tgfb1 mRNA expression, liver ([1]; 1 mg/kg oral) | Mcp-1 mRNA expression, kidney ([3]; 1 mg/kg gavage) | Tnf-α mRNA expression, kidney ([3]; 1 mg/kg gavage) | Mcp-1 mRNA expression, kidney ([3]; 10 mg/kg gavage) | Tnf-α mRNA expression, kidney ([3]; 10 mg/kg gavage) | Tnf mRNA expression, liver ([4]; 1 mg/kg oral) | Il6 mRNA expression, liver ([4]; 1 mg/kg oral) | Il1 mRNA expression, liver ([4]; 1 mg/kg oral) | ALT ([5]; 1 mg/kg oral) [U/L] | AST ([5]; 1 mg/kg oral) [U/L] | IL-1β ([6]; 0.1 mg/kg) [pg/mL] | IL-6 ([6]; 0.1 mg/kg) [pg/mL] | IL-1β ([6]; 1 mg/kg) [pg/mL] | IL-6 ([6]; 1 mg/kg) [pg/mL] | solubility [7] [mg/mL] | other results
1 | CN(C)C[C@@H]1C(=O)O[C@H]2[C@H]1CC[C@@]1(C)C[C@]13CC[C@@](C)(O)[C@H]23 [Compound 20] | 1.85 ± 0.77 | 1.16 ± 0.26 | 0.92 ± 0.21 | 2.33 ± 0.20 | 1.38 ± 0.17 | 1.40 ± 0.22 | 0.96 ± 0.13 | 5.71 ± 0.61 | 3.93 ± 0.90 | 3.07 ± 0.29 | 85.02 ± 15.84 | 153.34 ± 27.59 | 1570.02 ± 62.95 | 2348.32 ± 202.75 | 708.74 ± 38.40 | 1172.00 ± 240.50 | – | activity status after each administration [2]: relatively reduced activity and lethargy; time to recovery to normal activity [2]: 1 to 2 h; coat luster, behavioral activity, or mental state vs. Normal group ([2]; 30 days): no significant differences
2 | CN(C)C[C@@H]1C(=O)O[C@H]2[C@H]1CC[C@@]1(C)C[C@]13CC[C@@](C)(O)[C@H]23 [Compound 21] | 2.18 ± 0.42 | 1.26 ± 0.27 | 0.88 ± 0.16 | – | – | – | – | 7.12 ± 1.12 | 4.82 ± 0.69 | 4.22 ± 0.90 | 95.82 ± 2.72 | 215.82 ± 63.48 | 1623.55 ± 32.64 | 2585.26 ± 273.50 | 888.28 ± 35.20 | 1288.32 ± 123.80 | – | Acta2 mRNA expression, liver ([1]; 0.1 mg/kg oral): 2.86 ± 0.26; Col1a1 mRNA expression, liver ([1]; 0.1 mg/kg oral): 1.83 ± 0.53; Tgfb1 mRNA expression, liver ([1]; 0.1 mg/kg oral): 1.08 ± 0.29; Tnf mRNA expression, liver ([4]; 0.1 mg/kg oral): 7.78 ± 1.68; Il6 mRNA expression, liver ([4]; 0.1 mg/kg oral): 8.96 ± 0.70; Il1 mRNA expression, liver ([4]; 0.1 mg/kg oral): 10.32 ± 1.45; ALT ([5]; 0.1 mg/kg oral): 132.32 ± 31.96 U/L; AST ([5]; 0.1 mg/kg oral): 385.64 ± 28.70 U/L
3 | CC1=C2CC[C@@](C)(OC(=O)N3CCCCC3)[C@@H]2[C@H]2OC(=O)[C@@H](CN(C)C)[C@@H]2CC1 [Compound 102] | – | – | – | – | – | – | – | – | – | – | – | – | – | – | – | – | 132 (≈ 328 mM) | –
4 | CC1=C2CC[C@@](C)(OC(=O)N3CCCC3)[C@@H]2[C@H]2OC(=O)[C@@H](CN3CCCC3)[C@@H]2CC1 [Compound 103] | – | – | – | 6.78 ± 1.70 | 3.14 ± 0.57 | 5.67 ± 2.31 | 2.15 ± 0.13 | – | – | – | – | – | – | – | – | – | 278 (≈ 668 mM) | BUN ([8]; 1 mg/kg gavage): 54.34 ± 10.67; Scr (serum creatinine) ([8]; 1 mg/kg gavage): 23.48 ± 6.73; BUN ([8]; 10 mg/kg gavage): 38.10 ± 2.88; Scr (serum creatinine) ([8]; 10 mg/kg gavage): 14.90 ± 8.06; IL-1 β mRNA expression, kidney ([3]; 1 mg/kg gavage): 1.00 ± 0.25 ^; IL-6 mRNA expression, kidney ([3]; 1 mg/kg gavage): 4.47 ± 1.06; IL-1 β mRNA expression, kidney ([3]; 10 mg/kg gavage): 0.96 ± 0.18**^; IL-6 mRNA expression, kidney ([3]; 10 mg/kg gavage): 3.97 ± 0.94
